# Data published in PubChem BioAssay (NCI).
# “And” between values parts separate entries of the source, which are not always exact repeats. Equal entries are not always repeated.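 Growth conditions: 96-well plates. Treatment: test compound, 48 hours, 5 concentrations. Analysis: linear interpolation between bracketing concentrations; unreached endpoints set to highest concentration. GI50 marks 50% less growth. TGI denotes the concentration required for complete inhibition of growth.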
# Experiments:
# Assay in all cases: NCI-60 cell line screen, 48 h
# HCT-116 colon = test system: HCT-116 colon
# IGROV1 ovarian = test system: IGROV1 ovarian
# NCI-H23 lung = test system: NCI-H23 lung
# NCI-H460 lung = test system: NCI-H460 lung
# OVCAR-3 ovarian = test system: OVCAR-3 ovarian
# OVCAR-8 ovarian = test system: OVCAR-8 ovarian
# SF-268 CNS = test system: SF-268 CNS
# SK-MEL-5 melanoma = test system: SK-MEL-5 melanoma
# SW-620 colon = test system: SW-620 colon
# UACC-257 melanoma = test system: UACC-257 melanoma
Compound,TGI (HCT-116 colon),TGI (IGROV1 ovarian),TGI (NCI-H23 lung) [µM],TGI (NCI-H460 lung) [µM],TGI (OVCAR-3 ovarian),TGI (OVCAR-8 ovarian) [µM],TGI (SF-268 CNS) [µM],TGI (SK-MEL-5 melanoma) [µM],TGI (SW-620 colon) [µM],TGI (UACC-257 melanoma),GI50 (HCT-116 colon) [nM],GI50 (NCI-H460 lung) [µM],GI50 (OVCAR-3 ovarian) [µM],GI50 (OVCAR-8 ovarian) [µM],GI50 (SK-MEL-5 melanoma) [µM],GI50 (SW-620 colon) [µM],GI50 (UACC-257 melanoma) [nM],GI50 (IGROV1 ovarian) [µM],GI50 (NCI-H23 lung) [µM],GI50 (SF-268 CNS) [µM]
O=P(O)(O)OP(=O)(O)O,> 100 µM,> 100 µM,> 100,> 100,> 100 µM,> 100,> 100,> 100,> 100,> 100 µM,–,–,–,–,–,–,–,–,–,–
NC(CCc1ccccc1)(C(=O)O)c1ccccc1 (centres undefined),> 100 µM,> 100 µM,> 100,> 100,> 100 µM,> 100,> 100,> 100,> 100,> 100 µM,–,–,–,–,–,–,–,–,–,–
COC(=O)c1c(O)ccc2c1c1c(n2Cc2ccccn2)C(=O)c2ccccc2C1,> 100 µM,> 100 µM,> 100,> 100,> 100 µM,> 100,> 100,> 100,> 100,> 100 µM,–,–,–,–,–,–,–,–,–,–
CC(Br)C(=O)c1ccc2cc(Br)c3ccccc3c2c1 (centres undefined),29.9 µM,26.3 µM,29.7,30.9,26.6 µM,27.5,32.4,27.3,26.3,31.5 µM,–,–,–,–,–,–,–,–,–,–
CCOc1cc(NC(C)=O)ccc1C(=O)N/N=C/c1ccco1,> 100 µM,> 100 µM,> 100,> 100,> 100 µM,> 100,> 100,> 100,> 100,> 100 µM,–,–,–,–,–,–,–,–,–,–
CCCCCCOC(=O)C(N)Cc1ccc(OC)cc1 (centres undefined),> 100 µM,> 100 µM,> 100,> 100,> 100 µM,> 100,> 100,> 100,> 100,> 100 µM,–,–,–,–,–,–,–,–,–,–
Cc1cc(N2CCOCC2)nc(N(CCCNc2ccnc3cc(Cl)ccc23)Cc2ccc3c(c2)OCO3)n1,1.63 µM,–,–,2.99,0.738 µM,4.09,–,2.88,3.05,3.48 µM,464,1.45,0.253,1.85,1.54,1.44,1990,–,–,–
CN(C)C/C=C(/c1ccc(Br)cc1)c1cccnc1,> 100 µM,> 100 µM,> 100,> 100,> 100 µM,> 100,> 100,45.5,> 100,35.3 µM,–,–,–,–,–,–,–,–,–,–
CCN(CC)/[N+]([O-])=N/OC,> 100 µM,> 100 µM,> 100,> 100,> 100 µM,> 100,> 100,> 100,> 100,> 100 µM,–,–,–,–,–,–,–,–,–,–
Cc1cc(O)c2c(c1O)C(=O)c1c(O)ccc(O)c1C2=O,> 100 µM,> 100 µM,> 100,> 100,> 100 µM,> 100,> 100,> 100,> 100,> 100 µM,–,–,–,–,–,–,–,–,–,–
CC(C)(C)c1ccc(O)c(Br)c1,> 100 µM,> 100 µM,> 100,> 100,> 100 µM,> 100,> 100,> 100,> 100,> 100 µM,–,–,–,–,–,–,–,–,–,–
CC(C)c1ccc2c(c1)[C@@]1(C)CC[C@H](C)C(C)(C)C1CC2 (some centres undefined),34.9 µM,> 100 µM,35.6,36.9,63 µM,33.1,36,41.4,> 100,36.7 µM,–,–,–,–,–,–,–,–,–,–
O=C(CSc1nc2ccc(Cl)cc2c(=O)n1-c1ccccc1)N=Nc1c(O)[nH]c2ccc(F)cc12,3.28 µM,4.39 µM,7.57,9.77,4 µM,3.33,8.83,10.3,5.43,10.6 µM,–,–,–,–,–,–,–,–,–,–
Clc1ccc(NCc2nnc(COc3ccc(OCc4nnc(CNc5ccc(Cl)cc5)o4)c(Cl)c3)o2)cc1,> 100 µM,> 100 µM,> 100,> 100,93.5 µM,> 100,> 100,53.6,> 100,> 100 µM,–,–,–,–,–,–,–,–,–,–
C/C(=C\CNc1ncnc2nc(Cl)[nH]c12)CO,> 100 µM,> 100 µM,> 100,> 100,> 100 µM,> 100,> 100,> 100,> 100,> 100 µM,–,–,–,–,–,–,–,–,–,–
CCOC(=O)C(C)OC(=O)c1ccc(C)cc1 (centres undefined),> 100 µM,> 100 µM,> 100,> 100,> 100 µM,> 100,> 100,> 100,> 100,> 100 µM,–,–,–,–,–,–,–,–,–,–
NCCCCN,> 100 µM,> 100 µM,> 100,> 100,> 100 µM,> 100,> 100,> 100,> 100,> 100 µM,–,–,–,–,–,–,–,–,–,–
COc1cccc(/C=N/[N-]C(N)=O)c1[O-].[Cu+2].[OH3+].c1cnc2c(c1)ccc1cccnc12,27.8 µM,45.7 µM,15.8,79.9,36.1 µM,31.9,60.7,16.1,> 100,34.5 µM,–,–,–,–,–,–,–,–,–,–
COC(=N)C(C)C,> 100 µM,> 100 µM,> 100,> 100,> 100 µM,–,> 100,> 100,> 100,> 100 µM,–,–,–,–,–,–,–,–,–,–
C[C@H](Nc1ccc(C#N)n(C)c1=O)c1cc2cc(Cl)ccc2[nH]c1=O,> 100 µM,89.7 µM,> 100,> 100,> 100 µM,> 100,> 100,29.1,> 100,> 100 µM,23900,32.8,24.1,33.2,15.6,46.3,32600,16,35.4,22.7
CCOC(=O)C(=CNC(Cc1c[nH]c2ccccc12)C(=O)OC)C(=O)OCC (centres undefined),–,> 100 µM,> 100,> 100,> 100 µM,> 100,> 100,> 100,> 100,–,–,–,–,–,–,–,–,–,–,–
O=CC(O)C(O)C(O)COc1cc(CO)cc2c1C(=O)c1ccccc1C2=O (centres undefined),> 100 µM,> 100 µM,> 100,> 100,> 100 µM,> 100,> 100,> 100,> 100,> 100 µM,–,–,–,–,–,–,–,–,–,–
C=C1CCCC(C)(C)[C@@H]1CC/C(C)=C/Cn1c2cccc(=O)c-2nc2ccccc21,6.62 µM and 2.73 µM,8.87 µM and 6.11 µM,–,–,18.9 µM and 12.5 µM,–,3.71,13.8,–,9.02 µM and 4.68 µM,2550,14,–,4.28,–,5.87,2830,2.71,5.39,–
CC(C)(C)OC(=O)N1C(C2=COc3ccccc3O2)=COc2cccnc21,4.98 µM,3.35 µM,3.25,3.67,3.31 µM,4.06,3.93,3.17,4.56,3.92 µM,–,–,–,–,–,–,–,–,–,–
